Experimental data: US9624214B2, “Amino-substituted imidazo[1,2-a]pyridinecarboxamides and their use” (BAYER PHARMA AKTIENGESELLSCHAFT, priority 2012, dated 2017)

Target: T1, recombinant guanylate cyclase reporter cell line (Rattus norvegicus, UniProt P19686+P20595)
T1 construct: expressed in transfected cells
T1 sequence (P20595 1-619): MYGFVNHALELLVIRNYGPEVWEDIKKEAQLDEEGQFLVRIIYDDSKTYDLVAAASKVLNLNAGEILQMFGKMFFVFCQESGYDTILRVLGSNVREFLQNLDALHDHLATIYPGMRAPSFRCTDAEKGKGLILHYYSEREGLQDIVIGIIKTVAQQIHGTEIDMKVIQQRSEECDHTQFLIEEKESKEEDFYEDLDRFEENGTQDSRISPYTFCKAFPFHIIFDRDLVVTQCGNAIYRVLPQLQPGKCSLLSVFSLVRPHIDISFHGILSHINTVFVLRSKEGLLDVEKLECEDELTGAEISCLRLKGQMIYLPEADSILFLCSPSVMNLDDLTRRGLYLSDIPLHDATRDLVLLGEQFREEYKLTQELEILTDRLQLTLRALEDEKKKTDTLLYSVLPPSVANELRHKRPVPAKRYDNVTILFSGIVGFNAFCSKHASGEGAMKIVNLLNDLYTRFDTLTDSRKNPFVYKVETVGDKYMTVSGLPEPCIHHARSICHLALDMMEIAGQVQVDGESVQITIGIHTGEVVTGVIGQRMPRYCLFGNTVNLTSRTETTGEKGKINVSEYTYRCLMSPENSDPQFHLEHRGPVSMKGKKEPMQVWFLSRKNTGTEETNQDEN
T1 sequence (P19686 1-690): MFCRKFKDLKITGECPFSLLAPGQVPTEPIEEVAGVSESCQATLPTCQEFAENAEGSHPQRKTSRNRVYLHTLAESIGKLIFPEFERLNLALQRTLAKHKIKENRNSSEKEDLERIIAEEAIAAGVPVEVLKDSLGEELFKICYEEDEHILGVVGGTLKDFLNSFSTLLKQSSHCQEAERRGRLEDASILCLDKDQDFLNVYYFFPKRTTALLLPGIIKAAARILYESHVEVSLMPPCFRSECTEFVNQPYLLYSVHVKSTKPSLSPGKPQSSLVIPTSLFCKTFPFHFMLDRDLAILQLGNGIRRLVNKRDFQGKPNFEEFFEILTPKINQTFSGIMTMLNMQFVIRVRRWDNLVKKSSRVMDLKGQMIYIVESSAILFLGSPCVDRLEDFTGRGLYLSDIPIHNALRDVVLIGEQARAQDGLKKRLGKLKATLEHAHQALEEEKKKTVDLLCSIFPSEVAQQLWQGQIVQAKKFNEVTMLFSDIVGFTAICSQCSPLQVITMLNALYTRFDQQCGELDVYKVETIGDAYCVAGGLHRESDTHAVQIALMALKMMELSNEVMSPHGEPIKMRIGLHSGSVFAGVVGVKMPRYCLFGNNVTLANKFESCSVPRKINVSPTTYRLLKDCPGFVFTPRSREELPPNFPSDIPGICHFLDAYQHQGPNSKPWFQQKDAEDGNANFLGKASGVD
Assay: B-2. Action on recombinant guanylate cyclase reporter cell line
Assay type: cell-based
Conditions: MEC = minimal effective concentration; in some cases mean values from individual determinations
In short: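 Rat recombinant guanylate cyclase reporter cell line measures cellular activity. Value reported as MEC (minimal effective concentration), sometimes averaged over individual determinations.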

For `Cc1cc(OCc2c(F)cccc2F)c2nc(C)c(C(=O)NCC(C)(N)CC(C)C)n2c1` (single isomer, unassigned) [Example 220, ent-N-(2-Amino-2,4-dimethylpentyl)-8-[(2,6-difluorobenzyl)oxy]-2,6-dimethylimidazo[1,2-a]-pyridine-3-carboxamide], the MEC was 0.10 µM.
`Cc1cc(OCc2c(F)cccc2F)c2nc(C)c(C(=O)NCC(N)C(C)C)n2c1` (single isomer, unassigned) [Example 223, ent-N-(2-Amino-3-methylbutyl)-8-[(2,6-difluorobenzyl)oxy]-2,6-dimethylimidazo[1,2-a]pyridine-3-carboxamide] was tested, and the MEC was 0.30 µM.
Compound `Cc1cc(OCc2c(F)cccc2F)c2nc(C)c(C(=O)NCC(N)C(C)C)n2c1` (single isomer, unassigned) [Example 224, ent-N-(2-Amino-3-methylbutyl)-8-[(2,6-difluorobenzyl)oxy]-2,6-dimethylimidazo[1,2-a]pyridine-3-carboxamide] has an MEC of 0.30 µM.
`Cc1nc2c(OCc3c(F)cccc3F)cc(Cl)cn2c1C(=O)NCC(C)(N)CC(C)C` (single isomer, unassigned) [Example 226, ent-N-(2-Amino-2,4-dimethylpentyl)-6-chloro-8-[(2,6-difluorobenzyl)oxy]-2-methylimidazo[1,2-a]pyridine-3-carboxamide] showed an MEC of 0.10 µM.
`Cc1nc2c(OCc3c(F)cccc3F)cc(Cl)cn2c1C(=O)NCC(C)(N)CC(C)C` (single isomer, unassigned) [Example 227, ent-N-(2-Amino-2,4-dimethylpentyl)-6-chloro-8-[(2,6-difluorobenzyl)oxy]-2-methylimidazo[1,2-a]pyridine-3-carboxamide] gave an MEC of 0.30 µM.
`Cc1nc2c(OCc3c(F)cccc3F)cccn2c1C(=O)NCC(N)C(C)C` (single isomer, unassigned) [Example 228, ent-N-(2-Amino-3-methylbutyl)-8-[(2,6-difluorobenzyl)oxy]-2-methylimidazo[1,2-a]pyridine-3-carboxamide] gave an MEC of 1.00 µM.
Compound `Cc1nc2c(OCc3c(F)cccc3F)cccn2c1C(=O)NCC(N)C(C)C` (single isomer, unassigned) [Example 229, ent-N-(2-Amino-3-methylbutyl)-8-[(2,6-difluorobenzyl)oxy]-2-methylimidazo[1,2-a]pyridine-3-carboxamide] has an MEC of 1.00 µM.
With `Cc1nc2c(OCc3c(F)cccc3F)cccn2c1C(=O)NCC(N)C(F)(F)C(F)F` (single isomer, unassigned) [Example 231, ent-N-(2-Amino-3,3,4,4-tetrafluorobutyl)-8-[(2,6-difluorobenzyl)oxy]-2-methylimidazo[1,2-a]-pyridine-3-carboxamide] the MEC was 0.30 µM.
`CCCC(C)(N)CNC(=O)c1c(C)nc2c(OCc3c(F)cccc3F)cc(C)cn12` (single isomer, unassigned) [Example 233, ent-N-(2-Amino-2-methylpentyl)-8-[(2,6-difluorobenzyl)oxy]-2,6-dimethylimidazo[1,2-a]pyridine-3-carboxamide] was tested, and the MEC was 0.10 µM.
For `CCCC(C)(N)CNC(=O)c1c(C)nc2c(OCc3c(F)cccc3F)cc(C)cn12` (single isomer, unassigned) [Example 234, ent-N-(2-Amino-2-methylpentyl)-8-[(2,6-difluorobenzyl)oxy]-2,6-dimethylimidazo[1,2-a]pyridine-3-carboxamide], the MEC was 0.03 µM.
`Cc1nc2c(OCc3c(F)cccc3F)cc(Cl)cn2c1C(=O)NCC(C)(N)C(F)(F)F` (single isomer, unassigned) [Example 237, ent-N-(2-Amino-3,3,3-trifluoro-2-methylpropyl)-6-chloro-8-[(2,6-difluorobenzyl)oxy]-2-methylimidazo[1,2-a]pyridine-3-carboxamide] was tested, and the MEC was 0.30 µM.
With `Cc1nc2c(OCc3c(F)cccc3F)cc(Cl)cn2c1C(=O)NCC(C)(N)C(F)(F)F` (single isomer, unassigned) [Example 238, ent-N-(2-Amino-3,3,3-trifluoro-2-methylpropyl)-6-chloro-8-[(2,6-difluorobenzyl)oxy]-2-methylimidazo[1,2-a]pyridine-3-carboxamide] the MEC was 1.00 µM.
For `Cc1cc(OCc2c(F)cccc2F)c2nc(C)c(C(=O)NCC(C)(N)C(F)(F)F)n2c1` (single isomer, unassigned) [Example 240, ent-N-(2-Amino-3,3,3-trifluoro-2-methylpropyl)-8-[(2,6-difluorobenzyl)oxy]-2,6-dimethylimidazo-[1,2-a]pyridine-3-carboxamide], the MEC was 0.30 µM.
Compound `Cc1cc(OCc2c(F)cccc2F)c2nc(C)c(C(=O)NCC(C)(N)C(F)(F)F)n2c1` (single isomer, unassigned) [Example 241, ent-N-(2-Amino-3,3,3-trifluoro-2-methylpropyl)-8-[(2,6-difluorobenzyl)oxy]-2,6-dimethylimidazo-[1,2-a]pyridine-3-carboxamide] has an MEC of 0.30 µM.
Compound `COCC(N)CNC(=O)c1c(C)nc2c(OCc3c(F)cccc3F)cc(C)cn12` (single isomer, unassigned) [Example 242, ent-N-(2-Amino-3-methoxypropyl)-8-[(2,6-difluorobenzyl)oxy]-2,6-dimethylimidazo[1,2-a]-pyridine-3-carboxamide] has an MEC of 0.30 µM.
In the case of `COCC(N)CNC(=O)c1c(C)nc2c(OCc3c(F)cccc3F)cc(C)cn12` (single isomer, unassigned) [Example 243, ent-N-(2-Amino-3-methoxypropyl)-8-[(2,6-difluorobenzyl)oxy]-2,6-dimethylimidazo[1,2-a]-pyridine-3-carboxamide], the MEC is reported as 1.00 µM.
With `CCCC(C)(N)CNC(=O)c1c(C)nc2c(OCc3c(F)cccc3F)cc(Cl)cn12` (single isomer, unassigned) [Example 245, ent-N-(2-Amino-2-methylpentyl)-6-chloro-8-[(2,6-difluorobenzyl)oxy]-2-methylimidazo[1,2-a]-pyridine-3-carboxamide] the MEC was 0.10 µM.
Work on `CCCC(C)(N)CNC(=O)c1c(C)nc2c(OCc3c(F)cccc3F)cc(Cl)cn12` (single isomer, unassigned) [Example 246, ent-N-(2-Amino-2-methylpentyl)-6-chloro-8-[(2,6-difluorobenzyl)oxy]-2-methylimidazo[1,2-a]-pyridine-3-carboxamide] yielded an MEC of 0.30 µM.
Work on `COCC(N)CNC(=O)c1c(C)nc2c(OCc3c(F)cccc3F)cccn12` (single isomer, unassigned) [Example 247, ent-N-(2-Amino-3-methoxypropyl)-8-[(2,6-difluorobenzyl)oxy]-2-methylimidazo[1,2-a]pyridine-3-carboxamide] yielded an MEC of 3.00 µM.
For `CCCC(C)(N)CNC(=O)c1c(C)nc2c(OCc3c(F)ccc(F)c3F)cc(C)cn12` (single isomer, unassigned) [Example 295, ent-N-(2-amino-2-methylpentyl)-2,6-dimethyl-8-[(2,3,6-trifluorobenzyl)oxy]imidazo[1,2-a]pyridine-3-carboxamide], the MEC was 0.10 µM.
Compound `CCCC(C)(N)CNC(=O)c1c(C)nc2c(OCc3c(F)ccc(F)c3F)cc(C)cn12` (single isomer, unassigned) [Example 304, ent-N-(2-amino-2-methylpentyl)-2,6-dimethyl-8-[(2,3,6-trifluorobenzyl)oxy]imidazo[1,2-a]pyridine-3-carboxamide] has an MEC of 0.10 µM.
In the case of `Cc1cc(OCc2c(F)cccc2F)c2nc(C)c(C(=O)NC3CCC(N)C3)n2c1` (single isomer, unassigned) [Example 309, ent-N-(3-aminocyclopentyl)-8-[(2,6-difluorobenzyl)oxy]-2,6-dimethylimidazo[1,2-a]pyridine-3-carboxamide], the MEC is reported as 0.30 µM.
Work on `Cc1nc2c(OCc3c(F)cccc3F)cccn2c1C(=O)NC(CN)CC(C(F)(F)F)C(F)(F)F` (single isomer, unassigned; enantiomer a) [Example 7, ent-N-[1-Amino-5,5,5-trifluoro-4-(trifluoromethyl)pentan-2-yl]-8-[(2,6-difluorobenzyl)oxy]-2-methylimidazo[1,2-a]pyridine-3-carboxamide (Enantiomer A)] yielded an MEC of 1.00 µM.
